Test system: maternal HIV+ sera (antibodies)
Assay: RIA / ELISA binding of maternal HIV+ sera to gp120 and gp41 peptides (Example 3)
Parameters: species or system human
Method in brief: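 Peptides were coated at 10 μg/ml in carbonate buffer pH 9.6 and blocked with 1% BSA. Sera at 1:50 and 1:500 were incubated overnight at 4°C and detected with ¹²⁵I anti-human IgG (RIA) or HRP/TMB at OD450 (ELISA). Specific binding was taken as peptide minus no-peptide wells, scored as a ratio to normal human serum.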

[1] = Serum No. 1, Non-Transmission Group
[2] = Serum No. 2, Non-Transmission Group
[3] = Serum No. 3, Non-Transmission Group
[4] = Serum No. 4, Transmission Group
[5] = Serum No. 5, Transmission Group
[6] = Serum No. 6, Non-Transmission Group
[7] = Serum No. 7, Non-Transmission Group
[8] = Serum No. 8, Non-Transmission Group
[9] = Serum No. 9, Non-Transmission Group
[10] = Serum No. 10, Transmission Group
[11] = Serum No. 11, Non-Transmission Group
[12] = Serum No. 12, Non-Transmission Group
[13] = Serum No. 13, Transmission Group
[14] = Serum No. 14, Transmission Group
[15] = Serum No. 15, Transmission Group
[16] = Serum No. 16, Non-Transmission Group
[17] = Serum No. 17, Non-Transmission Group
[18] = Serum No. 18, Non-Transmission Group
[19] = Serum No. 19, Transmission Group
[20] = Serum No. 20, Non-Transmission Group

Sequence	Binding of maternal HIV+ serum to peptide (sera/NHS ratio) [1]	Binding of maternal HIV+ serum to peptide (sera/NHS ratio) [2]	Binding of maternal HIV+ serum to peptide (sera/NHS ratio) [3]	Binding of maternal HIV+ serum to peptide (sera/NHS ratio) [4]	Binding of maternal HIV+ serum to peptide (sera/NHS ratio) [5]	Binding of maternal HIV+ serum to peptide (sera/NHS ratio) [6]	Binding of maternal HIV+ serum to peptide (sera/NHS ratio) [7]	Binding of maternal HIV+ serum to peptide (sera/NHS ratio) [8]	Binding of maternal HIV+ serum to peptide (sera/NHS ratio) [9]	Binding of maternal HIV+ serum to peptide (sera/NHS ratio) [10]	Binding of maternal HIV+ serum to peptide (sera/NHS ratio) [11]	Binding of maternal HIV+ serum to peptide (sera/NHS ratio) [12]	Binding of maternal HIV+ serum to peptide (sera/NHS ratio) [13]	Binding of maternal HIV+ serum to peptide (sera/NHS ratio) [14]	Binding of maternal HIV+ serum to peptide (sera/NHS ratio) [15]	Binding of maternal HIV+ serum to peptide (sera/NHS ratio) [16]	Binding of maternal HIV+ serum to peptide (sera/NHS ratio) [17]	Binding of maternal HIV+ serum to peptide (sera/NHS ratio) [18]	Binding of maternal HIV+ serum to peptide (sera/NHS ratio) [19]	Binding of maternal HIV+ serum to peptide (sera/NHS ratio) [20]	also measured
KLICTTQVPWNASWS [Peptide 123]	+ (which value is between 2 to 3)	- (specific OD450 or cpm of sera sample binding to peptide divided by the specific OD450 or cpm of NHS sample binding to peptide, which value is less than 2)	- (specific OD450 or cpm of sera sample binding to peptide divided by the specific OD450 or cpm of NHS sample binding to peptide, which value is less than 2)	- (specific OD450 or cpm of sera sample binding to peptide divided by the specific OD450 or cpm of NHS sample binding to peptide, which value is less than 2)	- (specific OD450 or cpm of sera sample binding to peptide divided by the specific OD450 or cpm of NHS sample binding to peptide, which value is less than 2)	- (specific OD450 or cpm of sera sample binding to peptide divided by the specific OD450 or cpm of NHS sample binding to peptide, which value is less than 2)	- (specific OD450 or cpm of sera sample binding to peptide divided by the specific OD450 or cpm of NHS sample binding to peptide, which value is less than 2)	- (specific OD450 or cpm of sera sample binding to peptide divided by the specific OD450 or cpm of NHS sample binding to peptide, which value is less than 2)	- (specific OD450 or cpm of sera sample binding to peptide divided by the specific OD450 or cpm of NHS sample binding to peptide, which value is less than 2)	- (specific OD450 or cpm of sera sample binding to peptide divided by the specific OD450 or cpm of NHS sample binding to peptide, which value is less than 2)	- (specific OD450 or cpm of sera sample binding to peptide divided by the specific OD450 or cpm of NHS sample binding to peptide, which value is less than 2)	- (specific OD450 or cpm of sera sample binding to peptide divided by the specific OD450 or cpm of NHS sample binding to peptide, which value is less than 2)	- (specific OD450 or cpm of sera sample binding to peptide divided by the specific OD450 or cpm of NHS sample binding to peptide, which value is less than 2)	- (specific OD450 or cpm of sera sample binding to peptide divided by the specific OD450 or cpm of NHS sample binding to peptide, which value is less than 2)	- (specific OD450 or cpm of sera sample binding to peptide divided by the specific OD450 or cpm of NHS sample binding to peptide, which value is less than 2)	- (specific OD450 or cpm of sera sample binding to peptide divided by the specific OD450 or cpm of NHS sample binding to peptide, which value is less than 2)	- (specific OD450 or cpm of sera sample binding to peptide divided by the specific OD450 or cpm of NHS sample binding to peptide, which value is less than 2)	- (specific OD450 or cpm of sera sample binding to peptide divided by the specific OD450 or cpm of NHS sample binding to peptide, which value is less than 2)	- (specific OD450 or cpm of sera sample binding to peptide divided by the specific OD450 or cpm of NHS sample binding to peptide, which value is less than 2)	- (specific OD450 or cpm of sera sample binding to peptide divided by the specific OD450 or cpm of NHS sample binding to peptide, which value is less than 2)	–
CTRPNNNTRKSIRIQ [Peptide 106]	- (specific OD450 or cpm of sera sample binding to peptide divided by the specific OD450 or cpm of NHS sample binding to peptide, which value is less than 2)	- (specific OD450 or cpm of sera sample binding to peptide divided by the specific OD450 or cpm of NHS sample binding to peptide, which value is less than 2)	- (specific OD450 or cpm of sera sample binding to peptide divided by the specific OD450 or cpm of NHS sample binding to peptide, which value is less than 2)	- (specific OD450 or cpm of sera sample binding to peptide divided by the specific OD450 or cpm of NHS sample binding to peptide, which value is less than 2)	- (specific OD450 or cpm of sera sample binding to peptide divided by the specific OD450 or cpm of NHS sample binding to peptide, which value is less than 2)	- (specific OD450 or cpm of sera sample binding to peptide divided by the specific OD450 or cpm of NHS sample binding to peptide, which value is less than 2)	- (specific OD450 or cpm of sera sample binding to peptide divided by the specific OD450 or cpm of NHS sample binding to peptide, which value is less than 2)	- (specific OD450 or cpm of sera sample binding to peptide divided by the specific OD450 or cpm of NHS sample binding to peptide, which value is less than 2)	- (specific OD450 or cpm of sera sample binding to peptide divided by the specific OD450 or cpm of NHS sample binding to peptide, which value is less than 2)	- (specific OD450 or cpm of sera sample binding to peptide divided by the specific OD450 or cpm of NHS sample binding to peptide, which value is less than 2)	- (specific OD450 or cpm of sera sample binding to peptide divided by the specific OD450 or cpm of NHS sample binding to peptide, which value is less than 2)	- (specific OD450 or cpm of sera sample binding to peptide divided by the specific OD450 or cpm of NHS sample binding to peptide, which value is less than 2)	++ (which value is greater than 3)	++ (which value is greater than 3)	++ (which value is greater than 3)	+ (which value is between 2 to 3)	++ (which value is greater than 3)	- (specific OD450 or cpm of sera sample binding to peptide divided by the specific OD450 or cpm of NHS sample binding to peptide, which value is less than 2)	- (specific OD450 or cpm of sera sample binding to peptide divided by the specific OD450 or cpm of NHS sample binding to peptide, which value is less than 2)	+ (which value is between 2 to 3)	Percentage of sera samples demonstrating binding to peptide, non-transmitter (Non-transmitter group, n = 13): 23.0%; Percentage of sera samples demonstrating binding to peptide, transmitter (Transmitter / transmission group, n = 7): 42.9%; Percent of the maternal serum samples that bound to the peptide (all 20 samples): 30%

From US5556744A, “Methods and compositions for diagnosing and treating certain HIV infected patients” (The Trustees of the University of Pennsylvania, priority 1994, dated 1996)
